Assay results from patent US9273040B2 (Merck Sharp & Dohme Corp., priority 2011, dated 2016).

How the values were obtained:
Format in all cases: cell-based
[1] = molecular target: T1, human Nav1.5 channels stably expressed in HEK 293 cells (Homo sapiens, UniProt Q14524); assay: IonWorks Quattro automated patch-clamp, sodium current, inactivated state block; conditions: selectivity over Nav1.5
T1 construct: expressed in transfected cells
Procedure: (§1) Compounds were tested on human Nav1.7 and Nav1.5 channels stably expressed in HEK 293 cells. […] Cells were sealed on a planar substrate using the Population Patch Plate (PPC) technology. Electrical access was obtained using both nystatin and amphotericin. A double-pulse protocol was used for the determination of IC50 values for inactivated state block. Nav1.7 and Nav1.5 expressing cells were voltage clamped at −100 mV and −110 mV, respectively. A depolarizing prepulse to −10 mV (Nav1.7) or −30 mV (Nav1.5) for 1000 ms followed by a 10 ms repolarization to −100 mV (Nav1.7) or −110 mV (Nav1.5) was given to generate fractional channel inactivation of ˜50%, followed by a 10 ms test pulse to −10 mV (Nav1.7) or −30 mV (Nav1.5) to measure peak current in control conditions and after compound addition. The following recording solutions were used (mM). External: 150 NaCl, 2 CaCl2, 5 KCl, 1 Mg Cl2, 10 HEPES, 12 Dextrose; internal: 120 CsF, 30 CsCl, 10 EGTA, 5 HEPES, 5 NaF, 2 MgCl2.
(§2) For all electrophysiology experiments, offline analysis was used to correct for current rundown and to determine percent inhibition as a function of drug concentration. IC50 values were determined by fitting to the Hill equation.

[2] = molecular target: T2, human Nav1.7 channels stably expressed in HEK 293 cells (Homo sapiens, UniProt Q15858); assay: as above; conditions: read-out: potency for the Nav 1.7 sodium ion channel (as measured by IonWorks)
T2 construct: expressed in transfected cells
Procedure: as §1, §2

[3] = molecular target: T1, human Nav1.5 channels stably expressed in HEK 293 cells; assay: PatchXpress 7000 automated patch-clamp, sodium current; conditions: selectivity over Nav1.5
How it was run: (§3)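 IC50 values came from Hill-equation fits of rundown-corrected inhibition. PatchXpress recordings at 22° C held cells 20 mV negative to V0.5 inact and applied 10 Hz trains of 30 ms steps to −20 mV (Nav1.7) or an 8000 ms prepulse 7 mV positive to V0.5 inact. […]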

[4] = molecular target: T2, human Nav1.7 channels stably expressed in HEK 293 cells; assay: as above; conditions: 22° C., read-out: potency for the Nav 1.7 sodium ion channel (as measured by PatchXpress)
How it was run: as §3

T1 sequence (Q14524 whole entry): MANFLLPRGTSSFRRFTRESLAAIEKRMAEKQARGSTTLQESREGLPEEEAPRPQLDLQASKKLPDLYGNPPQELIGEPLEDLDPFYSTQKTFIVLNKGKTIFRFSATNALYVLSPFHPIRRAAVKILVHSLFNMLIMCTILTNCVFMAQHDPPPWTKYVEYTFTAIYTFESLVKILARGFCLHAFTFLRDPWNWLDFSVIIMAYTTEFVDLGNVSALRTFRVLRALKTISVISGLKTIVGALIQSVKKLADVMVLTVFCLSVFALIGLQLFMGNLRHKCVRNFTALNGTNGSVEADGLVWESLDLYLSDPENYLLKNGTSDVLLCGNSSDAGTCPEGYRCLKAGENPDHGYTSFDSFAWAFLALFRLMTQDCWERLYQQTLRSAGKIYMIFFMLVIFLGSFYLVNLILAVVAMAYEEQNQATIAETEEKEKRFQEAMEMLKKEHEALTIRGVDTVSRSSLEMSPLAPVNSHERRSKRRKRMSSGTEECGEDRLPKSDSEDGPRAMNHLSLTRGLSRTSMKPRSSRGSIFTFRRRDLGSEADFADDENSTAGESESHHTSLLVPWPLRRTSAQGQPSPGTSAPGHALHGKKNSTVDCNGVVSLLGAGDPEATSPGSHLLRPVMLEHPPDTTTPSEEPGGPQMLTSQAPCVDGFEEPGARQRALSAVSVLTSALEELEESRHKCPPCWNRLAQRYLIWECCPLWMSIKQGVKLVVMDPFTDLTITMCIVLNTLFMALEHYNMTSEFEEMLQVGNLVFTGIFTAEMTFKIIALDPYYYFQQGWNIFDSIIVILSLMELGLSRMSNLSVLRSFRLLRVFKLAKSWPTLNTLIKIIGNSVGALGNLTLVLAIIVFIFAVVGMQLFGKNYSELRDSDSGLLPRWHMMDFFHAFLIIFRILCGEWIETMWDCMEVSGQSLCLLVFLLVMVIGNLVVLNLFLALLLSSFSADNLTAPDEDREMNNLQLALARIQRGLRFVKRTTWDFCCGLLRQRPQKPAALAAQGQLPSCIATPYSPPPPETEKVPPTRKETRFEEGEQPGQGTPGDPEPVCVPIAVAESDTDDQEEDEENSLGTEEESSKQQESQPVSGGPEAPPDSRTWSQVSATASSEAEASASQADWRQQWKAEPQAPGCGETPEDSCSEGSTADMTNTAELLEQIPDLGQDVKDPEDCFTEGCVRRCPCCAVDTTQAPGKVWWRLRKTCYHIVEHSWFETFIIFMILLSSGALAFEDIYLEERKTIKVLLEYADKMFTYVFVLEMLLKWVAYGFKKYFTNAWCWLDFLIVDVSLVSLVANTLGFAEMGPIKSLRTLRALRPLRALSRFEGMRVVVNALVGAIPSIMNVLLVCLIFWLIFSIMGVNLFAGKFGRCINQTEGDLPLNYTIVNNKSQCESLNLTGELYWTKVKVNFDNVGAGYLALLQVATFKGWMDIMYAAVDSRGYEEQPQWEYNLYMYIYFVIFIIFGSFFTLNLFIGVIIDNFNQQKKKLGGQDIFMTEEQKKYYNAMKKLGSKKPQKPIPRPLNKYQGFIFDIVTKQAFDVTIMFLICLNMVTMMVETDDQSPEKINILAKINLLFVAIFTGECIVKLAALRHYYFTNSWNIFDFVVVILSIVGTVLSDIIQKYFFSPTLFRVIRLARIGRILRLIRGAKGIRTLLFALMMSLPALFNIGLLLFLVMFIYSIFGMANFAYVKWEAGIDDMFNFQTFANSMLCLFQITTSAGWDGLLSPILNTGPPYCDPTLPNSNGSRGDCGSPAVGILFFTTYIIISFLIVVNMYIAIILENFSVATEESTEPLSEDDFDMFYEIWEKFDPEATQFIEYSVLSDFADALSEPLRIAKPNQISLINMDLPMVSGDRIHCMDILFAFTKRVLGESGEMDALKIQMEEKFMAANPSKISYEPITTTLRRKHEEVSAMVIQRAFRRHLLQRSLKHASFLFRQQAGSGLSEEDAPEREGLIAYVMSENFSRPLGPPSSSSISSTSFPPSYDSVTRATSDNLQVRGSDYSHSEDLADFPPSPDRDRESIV
T2 sequence (Q15858 whole entry): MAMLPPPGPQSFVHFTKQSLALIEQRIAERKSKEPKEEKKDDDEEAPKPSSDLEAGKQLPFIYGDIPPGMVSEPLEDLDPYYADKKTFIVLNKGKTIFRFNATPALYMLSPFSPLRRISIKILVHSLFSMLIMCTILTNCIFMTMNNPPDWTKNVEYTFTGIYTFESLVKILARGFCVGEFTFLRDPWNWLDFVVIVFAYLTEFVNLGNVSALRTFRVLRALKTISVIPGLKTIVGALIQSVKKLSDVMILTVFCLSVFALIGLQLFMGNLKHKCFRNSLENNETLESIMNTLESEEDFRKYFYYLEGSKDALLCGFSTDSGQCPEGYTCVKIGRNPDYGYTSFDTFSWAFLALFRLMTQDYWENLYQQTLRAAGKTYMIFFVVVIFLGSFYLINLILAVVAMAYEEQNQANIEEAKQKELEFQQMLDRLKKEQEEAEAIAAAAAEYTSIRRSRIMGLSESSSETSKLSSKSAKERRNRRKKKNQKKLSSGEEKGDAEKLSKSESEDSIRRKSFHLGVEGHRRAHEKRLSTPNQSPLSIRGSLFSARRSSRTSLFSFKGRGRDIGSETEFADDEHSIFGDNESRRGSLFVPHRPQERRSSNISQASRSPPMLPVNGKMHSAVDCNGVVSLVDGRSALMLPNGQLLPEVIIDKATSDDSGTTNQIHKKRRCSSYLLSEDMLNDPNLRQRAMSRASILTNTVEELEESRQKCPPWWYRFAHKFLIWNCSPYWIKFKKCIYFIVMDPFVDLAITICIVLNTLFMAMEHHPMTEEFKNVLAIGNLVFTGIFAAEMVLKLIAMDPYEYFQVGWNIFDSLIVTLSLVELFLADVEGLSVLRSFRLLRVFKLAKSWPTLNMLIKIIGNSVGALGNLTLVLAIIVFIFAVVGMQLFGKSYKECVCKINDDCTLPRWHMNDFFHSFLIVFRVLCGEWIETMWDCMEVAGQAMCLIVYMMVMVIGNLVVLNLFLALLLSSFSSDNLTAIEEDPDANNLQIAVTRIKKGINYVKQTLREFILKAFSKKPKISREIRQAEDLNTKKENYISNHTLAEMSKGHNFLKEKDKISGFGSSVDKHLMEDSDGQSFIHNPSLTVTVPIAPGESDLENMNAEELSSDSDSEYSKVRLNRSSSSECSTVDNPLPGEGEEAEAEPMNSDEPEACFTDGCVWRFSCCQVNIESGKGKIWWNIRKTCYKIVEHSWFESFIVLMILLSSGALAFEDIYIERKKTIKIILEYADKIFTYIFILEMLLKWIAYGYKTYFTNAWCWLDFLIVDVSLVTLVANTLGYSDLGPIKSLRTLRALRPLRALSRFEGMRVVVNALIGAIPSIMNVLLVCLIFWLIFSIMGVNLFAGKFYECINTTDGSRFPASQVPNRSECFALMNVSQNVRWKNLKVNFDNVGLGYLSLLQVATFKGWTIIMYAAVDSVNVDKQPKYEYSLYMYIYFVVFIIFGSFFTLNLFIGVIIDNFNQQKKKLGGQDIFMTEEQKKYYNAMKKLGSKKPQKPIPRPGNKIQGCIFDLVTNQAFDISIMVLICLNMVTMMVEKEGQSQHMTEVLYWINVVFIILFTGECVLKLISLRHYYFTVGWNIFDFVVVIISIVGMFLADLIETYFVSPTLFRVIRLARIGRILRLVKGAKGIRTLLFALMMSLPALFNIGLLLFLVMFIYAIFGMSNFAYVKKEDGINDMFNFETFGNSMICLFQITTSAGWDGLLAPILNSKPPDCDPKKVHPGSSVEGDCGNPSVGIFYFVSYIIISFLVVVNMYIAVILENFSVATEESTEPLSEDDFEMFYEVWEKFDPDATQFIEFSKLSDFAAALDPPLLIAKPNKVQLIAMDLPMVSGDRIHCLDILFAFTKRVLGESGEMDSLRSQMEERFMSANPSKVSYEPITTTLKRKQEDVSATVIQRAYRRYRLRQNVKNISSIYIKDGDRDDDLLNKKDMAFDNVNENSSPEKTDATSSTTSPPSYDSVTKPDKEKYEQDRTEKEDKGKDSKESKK

SMILES	ratio of Nav 1.5:Nav 1.7 potency, determined by IonWorks measurement [1]	IC50 [2] [nM]	ratio of Nav 1.5:Nav 1.7 potency, determined by PatchXpress measurement [3]	IC50 [4] [nM]
CC(c1ccccc1C(F)(F)F)n1c(=O)oc2cc(S(=O)(=O)Nc3ncns3)ccc21 (stereo not shown) [Compound 4-9, 2-oxo-N-1,2,4-thiadiazol-5-yl-3-{1-[2-(trifluoromethyl)phenyl]ethyl}-2,3-dihydro-1,3-benzoxazole-6-sulfonamide]	22	1140	> 11	2640
CCN1CCc2cccc(Cn3c(=O)oc4cc(S(=O)(=O)Nc5ncns5)ccc43)c2C1 [Compound 6-2, 3-[(2-ethyl-1,2,3,4-tetrahydroisoquinolin-8-yl)methyl]-2-oxo-N-1,2,4-thiadiazol-5-yl-2,3-dihydro-1,3-benzoxazole-6-sulfonamide]	> 98	336	71	234
C[C@@H](c1cccc2c1CNCC2)n1c(=O)oc2cc(S(=O)(=O)Nc3ncns3)ccc21 [Compound 4-15, 2-oxo-3-[(1S)-1-(1,2,3,4-tetrahydroisoquinolin-8-yl)ethyl]-N-1,2,4-thiadiazol-5-yl-2,3-dihydro-1,3-benzoxazole-6-sulfonamide]	> 451	73	> 87	343
NC/C=C/c1ccccc1Cn1c(=O)oc2cc(S(=O)(=O)Nc3ncns3)ccc21 [Compound 3-3, 3-{2-[(1E)-3-Aminoprop-1-en-1-yl]benzyl}-2-oxo-N-(1,2,4-thiadiazol-5-yl)-2,3-dihydro-1,3-benzoxazole-6-sulfonamide]	65	216	> 89	336
O=c1oc2cc(S(=O)(=O)Nc3ncns3)ccc2n1Cc1ccccc1C1=CC2CCC(C1)N2 (stereo not shown) [Compound 3-7, 3-[2-(8-azabicyclo[3.2.1]oct-2-en-3-yl)benzyl]-2-oxo-N-1,2,4-thiadiazol-5-yl-2,3-dihydro-1,3-benzoxazole-6-sulfonamide]	> 113	292	> 219	137
CC(c1ccccc1)n1c(=O)oc2cc(S(=O)(=O)Nc3ncns3)ccc21 (stereo not shown) [Compound 4-6, 2-oxo-3-(1-phenylethyl)-N-1,2,4-thiadiazol-5-yl-2,3-dihydro-1,3-benzoxazole-6-sulfonamide]	> 35	954	> 88	342
O=c1oc2cc(S(=O)(=O)Nc3ncns3)ccc2n1Cc1ccccc1-c1cccc2c1CCNC2 [Compound 3-8, 2-oxo-3-[2-(1,2,3,4-tetrahydroisoquinolin-5-yl)benzyl]-N-1,2,4-thiadiazol-5-yl-2,3-dihydro-1,3-benzoxazole-6-sulfonamide]	> 103	321	> 108	278
CS(=O)(=O)N1CCc2cccc(Cn3c(=O)oc4cc(S(=O)(=O)Nc5ncns5)ccc43)c2C1 [Compound 8-4, 3-{[2-(Methylsulfonyl)-1,2,3,4-tetrahydroisoquinolin-8-yl]methyl}-2-oxo-N-(1,2,4-thiadiazol-5-yl)-2,3-dihydro-1,3-benzoxazole-6-sulfonamide]	20	526	> 1180	254
CC(CCc1ccccc1)n1c(=O)oc2cc(S(=O)(=O)Nc3ncns3)ccc21 (stereo not shown) [Compound 4-11, 3-(1-methyl-3-phenylpropyl)-2-oxo-N-1,2,4-thiadiazol-5-yl-2,3-dihydro-1,3-benzoxazole-6-sulfonamide]	9	1730	> 17	1770
O=c1oc2cc(S(=O)(=O)Nc3ncns3)ccc2n1Cc1cccc(Cl)c1 [Compound 1-11, 3-(3-chlorobenzyl)-2-oxo-N-1,2,4-thiadiazol-5-yl-2,3-dihydro-1,3-benzoxazole-6-sulfonamide]	59	360	59	360
NC/C=C/c1cc(Cl)ccc1Cn1c(=O)oc2cc(S(=O)(=O)Nc3ncns3)ccc21 [Compound 3-11, 3-{2-[(1E)-3-aminoprop-1-en-1-yl]-4-chlorobenzyl}-2-oxo-N-1,2,4-thiadiazol-5-yl-2,3-dihydro-1,3-benzoxazole-6-sulfonamide]	> 56	596	87	219
O=c1oc2cc(S(=O)(=O)Nc3ncns3)ccc2n1Cc1ccccc1Cl [Compound 1-12, 3-(2-chlorobenzyl)-2-oxo-N-1,2,4-thiadiazol-5-yl-2,3-dihydro-1,3-benzoxazole-6-sulfonamide]	67	408	67	408
O=c1oc2cc(S(=O)(=O)Nc3ncns3)c(F)cc2n1Cc1cccc2c1CNCC2 [Compound 11-5, 5-Fluoro-2-oxo-3-(1,2,3,4-tetrahydroisoquinolin-8-ylmethyl)-N-(1,2,4-thiadiazol-5-yl)-2,3-dihydro-1,3-benzoxazole-6-sulfonamide]	182	101	139	69
O=c1oc2cc(S(=O)(=O)Nc3ncns3)ccc2n1Cc1ccccc1-c1cccc2c1CNCC2 [Compound 3-4, 2-oxo-3-[2-(1,2,3,4-tetrahydroisoquinolin-8-yl)benzyl]-N-1,2,4-thiadiazol-5-yl-2,3-dihydro-1,3-benzoxazole-6-sulfonamide]	> 209	158	> 272	110
O=C(C1CC1)N1CCc2cccc(Cn3c(=O)oc4cc(S(=O)(=O)Nc5ncns5)ccc43)c2C1 [Compound 10-1, 3-{[2-(Cyclopropylcarbonyl)-1,2,3,4-tetrahydroisoquinolin-8-yl]methyl}-2-oxo-N-1,2,4-thiadiazol-5-yl-2,3-dihydro-1,3-benzoxazole-6-sulfonamide]	> 50	666	14	598
O=c1oc2cc(S(=O)(=O)Nc3ncns3)ccc2n1Cc1ccc(Cl)cc1 [Compound 1-13, 3-(4-chlorobenzyl)-2-oxo-N-1,2,4-thiadiazol-5-yl-2,3-dihydro-1,3-benzoxazole-6-sulfonamide]	> 34	976	> 34	976
C[C@H](c1ccccc1)n1c(=O)oc2cc(S(=O)(=O)Nc3ncns3)ccc21 [Compound 4-7, 2-oxo-3-[(1R)-1-phenylethyl]-N-1,2,4-thiadiazol-5-yl-2,3-dihydro-1,3-benzoxazole-6-sulfonamide]	28	670	287	74
C[C@H](c1cccc2c1CNCC2)n1c(=O)oc2cc(S(=O)(=O)Nc3ncns3)c(F)cc21 [Compound 13-2, 5-Fluoro-2-oxo-3-[(1R)-1-(1,2,3,4-tetrahydroisoquinolin-8-yl)ethyl]-N-(1,2,4-thiadiazol-5-yl)-2,3-dihydro-1,3-benzoxazole-6-sulfonamide]	2604	4	357	26
C[C@H](c1cccc2c1CNCC2)n1c(=O)oc2cc(S(=O)(=O)Nc3ncns3)ccc21 [Compound 4-4, 2-Oxo-3-[(1R)-1-(1,2,3,4-tetrahydroisoquinolin-8-yl)ethyl]-N-(1,2,4-thiadiazol-5-yl)-2,3-dihydro-1,3-benzoxazole-6-sulfonamide]	4494	5	> 1153	26
